Experimental findings from patent US20230117034A1, “PYRAZOLOTRIAZINES” (Bayer Aktiengesellschaft, priority 2019, published 2023) are described below.

The subject of assay [1] is MDA-MB-231, human breast cancer cells. Kind of assay: Proliferation assay MDA-MB-231 (crystal violet, 4 days). Type of assay: cell-based. The conditions noted are these: Homo sapiens, MDA-MB-231, 96 h, MDA-MB-231 cells, median, read-out: Prolif-MDA MB-231, IC50-[mol/l] (median). The method, boiled down: (§1)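 Cells seeded at 4,000/well in medium with 10% FCS; after 24 h, compounds added at 0.01-10 µmol/L (0.1% DMSO) for 4 days. Glutaraldehyde-fixed, crystal violet-stained, absorbance at 595 nm normalized to zero-point plate (0%) and untreated cells (100%); IC50 by 4-parameter fit.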

The subject of assay [2] is CAL-120, human breast adenocarcinoma cells. Kind of assay: Proliferation assay CAL-120 (crystal violet, 4 days). Type of assay: cell-based. The conditions noted are these: Homo sapiens, CAL-120, 96 h, CAL-120 cells, median, read-out: Prolif-CAL-120, IC50-[mol/l] (median). The method, boiled down:
as §1

Assay [3] concerns the target T1, CDK12 (nuclear staining in CAL-120 cells) (Homo sapiens, UniProt Q9NYV4).
T1 construct: endogenous in cells; host or cells: CAL-120 human breast cancer cells (DSMZ ACC 459)
The experiment in a line: CDK12 nuclear protein level: immunofluorescence/high content analysis (CAL-120). The note with it: for DC50: CAL-120 cells, 24 h, immunofluorescence, 50% reduction of nuclear CDK12 staining intensity, median, read-out: CDK12 degradation IF, DC50- [mol/l] (median); for (IC50 CDK12 high ATP) to (Degradation DC50 CDK12) ratio: ratio of IC50 CDK12 high ATP kinase assay to DC50 CDK12 degradation (IF, CAL-120). In kind it is cell-based. The method, boiled down: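 CAL-120 cells were treated with compound for 24 h at 37 °C, fixed with PFA and immunostained for CDK12. Nuclear CDK12 intensity was quantified by automated image analysis and normalized to DMSO and control. DC50 is the concentration giving 50% reduction of nuclear staining.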

The subject of assay [4] is BRCA1 mRNA expression in MDA-MB-231 cells. Kind of assay: qRT-PCR assay: BRCA1 mRNA expression in MDA-MB-231. The conditions noted are these: Homo sapiens, MDA-MB-231, Inhibition of BRCA1 mRNA expression in MDA-MB-231 cells; median; read-out: RTqPCR-MDA-MB-231, IC50, BRCA1 (median). Type of assay: cell-based, human. An outline of the steps:
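Cells were seeded at 200,000 cells/well, left 24 h, then exposed continuously to test substances for 24 h. Total RNA (600 ng) was reverse-transcribed to cDNA and amplified by qPCR, and transcript levels were normalised to GAPDH housekeeping expression.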
Background: Real-time PCR tracks product formation cycle by cycle.

T1 sequence (Q9NYV4 whole entry): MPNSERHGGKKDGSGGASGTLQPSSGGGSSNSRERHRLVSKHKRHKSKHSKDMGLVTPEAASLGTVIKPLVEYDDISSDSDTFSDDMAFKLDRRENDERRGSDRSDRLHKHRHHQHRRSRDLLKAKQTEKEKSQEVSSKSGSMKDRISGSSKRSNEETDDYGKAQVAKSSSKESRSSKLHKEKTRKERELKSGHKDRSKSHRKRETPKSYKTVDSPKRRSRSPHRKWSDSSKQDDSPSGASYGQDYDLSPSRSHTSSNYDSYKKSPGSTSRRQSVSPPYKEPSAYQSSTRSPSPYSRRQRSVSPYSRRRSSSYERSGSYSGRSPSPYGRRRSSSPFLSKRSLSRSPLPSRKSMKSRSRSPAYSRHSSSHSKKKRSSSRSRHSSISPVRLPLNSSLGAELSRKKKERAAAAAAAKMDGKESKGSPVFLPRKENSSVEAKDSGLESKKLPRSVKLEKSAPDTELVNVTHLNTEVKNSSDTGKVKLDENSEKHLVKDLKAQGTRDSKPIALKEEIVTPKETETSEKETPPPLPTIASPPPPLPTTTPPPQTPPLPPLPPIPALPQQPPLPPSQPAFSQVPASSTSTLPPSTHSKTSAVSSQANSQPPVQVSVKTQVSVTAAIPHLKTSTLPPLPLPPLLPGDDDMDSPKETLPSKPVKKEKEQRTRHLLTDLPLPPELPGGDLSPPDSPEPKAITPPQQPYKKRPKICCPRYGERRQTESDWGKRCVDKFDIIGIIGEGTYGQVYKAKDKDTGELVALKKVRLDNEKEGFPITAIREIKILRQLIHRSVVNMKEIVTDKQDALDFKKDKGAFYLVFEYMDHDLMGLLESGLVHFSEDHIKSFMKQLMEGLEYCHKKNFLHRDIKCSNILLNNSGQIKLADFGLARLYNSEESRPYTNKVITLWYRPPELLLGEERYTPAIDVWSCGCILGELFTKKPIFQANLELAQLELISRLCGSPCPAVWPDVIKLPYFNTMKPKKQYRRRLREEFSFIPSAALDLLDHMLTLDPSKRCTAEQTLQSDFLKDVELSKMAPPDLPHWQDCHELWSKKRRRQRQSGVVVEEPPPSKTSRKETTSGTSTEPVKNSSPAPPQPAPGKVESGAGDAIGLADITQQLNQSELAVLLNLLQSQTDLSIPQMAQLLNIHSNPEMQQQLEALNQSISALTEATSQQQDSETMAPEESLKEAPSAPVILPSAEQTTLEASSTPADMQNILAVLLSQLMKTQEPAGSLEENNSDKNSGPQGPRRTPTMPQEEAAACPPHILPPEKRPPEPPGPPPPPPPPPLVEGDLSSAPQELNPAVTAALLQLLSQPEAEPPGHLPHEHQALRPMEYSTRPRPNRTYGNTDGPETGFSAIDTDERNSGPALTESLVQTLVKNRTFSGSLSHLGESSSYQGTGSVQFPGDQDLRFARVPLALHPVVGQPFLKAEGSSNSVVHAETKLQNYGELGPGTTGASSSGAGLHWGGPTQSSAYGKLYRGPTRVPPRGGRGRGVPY
T1 sequence (O75909 whole entry partner): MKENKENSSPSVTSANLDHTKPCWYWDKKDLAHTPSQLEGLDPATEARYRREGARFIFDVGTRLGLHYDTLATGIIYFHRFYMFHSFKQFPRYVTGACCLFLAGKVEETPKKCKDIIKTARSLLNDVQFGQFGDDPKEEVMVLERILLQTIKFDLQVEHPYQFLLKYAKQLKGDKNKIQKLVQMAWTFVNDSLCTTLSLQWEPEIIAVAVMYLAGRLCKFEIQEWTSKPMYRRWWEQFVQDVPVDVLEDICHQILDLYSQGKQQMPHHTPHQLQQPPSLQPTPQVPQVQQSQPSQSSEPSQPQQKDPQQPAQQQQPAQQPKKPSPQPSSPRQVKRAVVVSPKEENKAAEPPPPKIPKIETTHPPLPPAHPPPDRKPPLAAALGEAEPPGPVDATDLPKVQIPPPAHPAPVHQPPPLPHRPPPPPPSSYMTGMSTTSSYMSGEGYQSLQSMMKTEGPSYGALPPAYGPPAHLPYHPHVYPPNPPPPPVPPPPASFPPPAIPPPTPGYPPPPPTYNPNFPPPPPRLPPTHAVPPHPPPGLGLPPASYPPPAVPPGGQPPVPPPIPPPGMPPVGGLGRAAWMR

As to `CN(C)[C@H]1CCN(c2nc(NCc3nc4ccccc4[nH]3)n3ncc(Br)c3n2)C1` [Example 177, N-[(1H-benzimidazol-2-yl)methyl]-8-bromo-2-[(3S)-3-(dimethylamino)pyrrolidin-1-yl]pyrazolo[1,5-a][1,3,5]triazin-4-amine], the IC50 in assay [1] was determined as 332 nM. Besides, the IC50 in assay [2] worked out at 68.8 nM. Further, in assay [3], the DC50 is 35.7 nM and the “(IC50 CDK12 high ATP) to (Degradation DC50 CDK12) ratio” value is listed as over 561.
For the compound `CN(CC(C)(C)O)c1nc(NCc2nc3ccccc3[nH]2)n2ncc(Br)c2n1` [Example 238, 1-[(4-{[(1H-benzimidazol-2-yl)methyl]amino}-8-bromopyrazolo[1,5-a][1,3,5]triazin-2-yl)(methyl)amino]-2-methylpropan-2-ol], the IC50 is 40.1 nM in assay [1], over 12.4 nM in assay [4] and 36.3 nM in assay [2]. For the same compound, the DC50 in assay [3] stood at 6.49 nM. Besides, the “(IC50 CDK12 high ATP) to (Degradation DC50 CDK12) ratio” value in assay [3] turned out to be 276.
In the case of `Cc1ccc2[nH]c(CNc3nc(N4C[C@@H](C)N[C@@H](C)C4)nc4c(C5CC5)cnn34)nc2c1` [Example 194, 8-cyclopropyl-2-[(3R,5S)-3,5-dimethylpiperazin-1-yl]-N-[(5-methyl-1H-benzimidazol-2-yl)methyl]pyrazolo[1,5-a][1,3,5]triazin-4-amine], the IC50 worked out at 1.69 nM in assay [1], 0.829 nM in assay [4] and 1.16 nM in assay [2]. The DC50 in assay [3] was 0.23 nM. The “(IC50 CDK12 high ATP) to (Degradation DC50 CDK12) ratio” value in assay [3] worked out at 16078.
On to `CN1CC2CCC1CN2c1nc(NCc2nc3ccccc3[nH]2)n2ncc(Br)c2n1` (stereo not drawn) [Example 221, N-(1H-benzimidazol-2-ylmethyl)-8-bromo-2-(5-methyl-2,5-diazabicyclo[2.2.2]octan-2-yl)pyrazolo[1,5-a][1,3,5]triazin-4-amine], for which the IC50 was determined as 31.7 nM in assay [1], 11.8 nM in assay [4] and 13 nM in assay [2]. The DC50 in assay [3] came to 4.68 nM. Besides, in assay [3], the “(IC50 CDK12 high ATP) to (Degradation DC50 CDK12) ratio” value amounted to 1704.
Turning to `CN1CCCC2CN(c3nc(NCc4nc5ccccc5[nH]4)n4ncc(Br)c4n3)CC21` (stereo not drawn) [Example 231, N-[(1H-benzimidazol-2-yl)methyl]-8-bromo-2-(1-methyloctahydro-6H-pyrrolo[3,4-b]pyridin-6-yl)pyrazolo[1,5-a][1,3,5]triazin-4-amine], in assay [1], the IC50 was 110 nM. The IC50 in assay [2] came to 135 nM. Also, in assay [3], the DC50 was found to be 33.9 nM and the “(IC50 CDK12 high ATP) to (Degradation DC50 CDK12) ratio” value is listed as over 590.
As for `Brc1cnn2c(NCc3nc4ccccc4[nH]3)nc(NCCN3CCCC3)nc12` [Example 235, N4-(1H-benzimidazol-2-ylmethyl)-8-bromo-N2-(2-pyrrolidin-1-ylethyl)pyrazolo[1,5-a][1,3,5]triazine-2,4-diamine], the figures for the IC50 in assay [1] and in assay [2] were 315 nM and 274 nM, respectively. The DC50 in assay [3] turned out to be 104 nM. The “(IC50 CDK12 high ATP) to (Degradation DC50 CDK12) ratio” value in assay [3] was over 192.
As to `OCCNc1nc(NCc2nc3ccccc3[nH]2)n2ncc(Br)c2n1` [Example 228, 2-[(4-{[(1H-benzimidazol-2-yl)methyl]amino}-8-bromopyrazolo[1,5-a][1,3,5]triazin-2-yl)amino]ethan-1-ol], the IC50 was 434 nM in assay [1] and 273 nM in assay [2]. Moreover, in assay [3], the DC50 was 47.1 nM. The “(IC50 CDK12 high ATP) to (Degradation DC50 CDK12) ratio” value in assay [3] is listed as over 425.
In the case of `Cc1cc(-c2cnn3c(NCc4nc5ccccc5[nH]4)nc(N4CCN(C)CC4)nc23)ccn1` [Example 243, N-[(1H-benzimidazol-2-yl)methyl]-2-(4-methylpiperazin-1-yl)-8-(2-methylpyridin-4-yl)pyrazolo[1,5-a][1,3,5]triazin-4-amine], in assay [2], the IC50 was 3670 nM. Moreover, in assay [3], the DC50 is 267 nM and the “(IC50 CDK12 high ATP) to (Degradation DC50 CDK12) ratio” value is given as over 75.
For the compound `COCCNc1nc(NCc2nc3ccccc3[nH]2)n2ncc(Br)c2n1` [Example 230, N4-(1H-benzimidazol-2-ylmethyl)-8-bromo-N2-(2-methoxyethyl)pyrazolo[1,5-a][1,3,5]triazine-2,4-diamine], in assay [1], the IC50 came to 261 nM. The IC50 in assay [2] came to 313 nM. In assay [3], the DC50 came to 66 nM and the “(IC50 CDK12 high ATP) to (Degradation DC50 CDK12) ratio” value is given as over 303.
As for `CN(CCO)c1nc(NCc2nc3ccccc3[nH]2)n2ncc(Br)c2n1` [Example 237, 2-[(4-{[(1H-benzimidazol-2-yl)methyl]amino}-8-bromopyrazolo[1,5-a][1,3,5]triazin-2-yl)(methyl)amino]ethan-1-ol], the IC50 in assay [1] is 164 nM. For the same compound, in assay [2], the IC50 came to 164 nM. Moreover, in assay [3], the DC50 was 128 nM and the “(IC50 CDK12 high ATP) to (Degradation DC50 CDK12) ratio” value worked out at 58.
In the case of `C[C@@H]1CN(c2nc(NCc3nc4ccccc4[nH]3)n3ncc(Br)c3n2)CCN1` [Example 168, N-[(1H-benzimidazol-2-yl)methyl]-8-bromo-2-[(3R)-3-methylpiperazin-1-yl]pyrazolo[1,5-a][1,3,5]triazin-4-amine], the IC50 in assay [4] came out at 2.46 nM. Moreover, the IC50 in assay [2] amounted to 3.25 nM. Also, in assay [3], the DC50 came out at 0.532 nM and the “(IC50 CDK12 high ATP) to (Degradation DC50 CDK12) ratio” value worked out at 10872.
Take `CN(CCN1CCCC1)c1nc(NCc2nc3ccccc3[nH]2)n2ncc(Br)c2n1` [Example 239, N4-(1H-benzimidazol-2-ylmethyl)-8-bromo-N2-methyl-N2-(2-pyrrolidin-1-ylethyl)pyrazolo[1,5-a][1,3,5]triazine-2,4-diamine]: the IC50 in assay [1] is 561 nM. For the same compound, the IC50 in assay [2] worked out at 436 nM. In assay [3], the DC50 is 347 nM and the “(IC50 CDK12 high ATP) to (Degradation DC50 CDK12) ratio” value is given as over 58.
For `CO[C@H]1CCN(c2nc(NCc3nc4ccccc4[nH]3)n3ncc(Br)c3n2)C1` [Example 222, N-[(1H-benzimidazol-2-yl)methyl]-8-bromo-2-[(3S)-3-methoxypyrrolidin-1-yl]pyrazolo[1,5-a][1,3,5]triazin-4-amine] the same measures were 182 nM, 107 nM, 48.8 nM and 123.
As for `OC1CCN(c2nc(NCc3nc4ccccc4[nH]3)n3ncc(Br)c3n2)CC1` [Example 17, 1-(4-{[(1H-benzimidazol-2-yl)methyl]amino}-8-bromopyrazolo[1,5-a][1,3,5]triazin-2-yl)piperidin-4-ol], in assay [1], the IC50 was 107 nM. Also, in assay [4], the IC50 is 12 nM. In addition, in assay [3], the DC50 is 5.98 nM and the “(IC50 CDK12 high ATP) to (Degradation DC50 CDK12) ratio” value worked out at 957.
Turning to `CN1CC2CCC(C1)N2c1nc(NCc2nc3ccccc3[nH]2)n2ncc(Br)c2n1` [Example 226, N-(1H-benzimidazol-2-ylmethyl)-8-bromo-2-(3-methyl-3,8-diazabicyclo[3.2.1]octan-8-yl)pyrazolo[1,5-a][1,3,5]triazin-4-amine], the IC50 in assay [1] turned out to be 162 nM. Further, the IC50 in assay [2] came to 116 nM. For the same compound, in assay [3], the DC50 was determined as 27.6 nM and the “(IC50 CDK12 high ATP) to (Degradation DC50 CDK12) ratio” value is over 725.
On to `CC(C)c1cnn2c(NCc3nc4ccccc4[nH]3)nc(Nc3ccccc3)nc12` [Example 13, N^4-[(1H-benzimidazol-2-yl)methyl]-N^2-phenyl-8-(propan-2-yl)pyrazolo[1,5-a][1,3,5]triazine-2,4-diamine], for which, in assay [3], the DC50 was 43.8 nM and the “(IC50 CDK12 high ATP) to (Degradation DC50 CDK12) ratio” value is on record as over 457.
With `CCN(C)c1nc(NCc2nc3ccccc3[nH]2)n2ncc(Br)c2n1` [Example 233, N4-(1H-benzimidazol-2-ylmethyl)-8-bromo-N2-ethyl-N2-methyl-pyrazolo[1,5-a][1,3,5]triazine-2,4-diamine], the IC50 was 145 nM in assay [1] and 158 nM in assay [2]. For the same compound, the DC50 in assay [3] amounted to 103 nM. The “(IC50 CDK12 high ATP) to (Degradation DC50 CDK12) ratio” value in assay [3] came out at 73.
For the compound `CC1CN(c2nc(NCc3nc4ccccc4[nH]3)n3ncc(C(C)C)c3n2)CCO1` (racemic) [Example 11, (rac)-N-[(1H-benzimidazol-2-yl)methyl]-2-[2-methylmorpholin-4-yl]-8-(propan-2-yl)pyrazolo[1,5-a][1,3,5]triazin-4-amine], the IC50 in assay [4] was 31.8 nM. Further, in assay [3], the DC50 turned out to be 12.6 nM and the “(IC50 CDK12 high ATP) to (Degradation DC50 CDK12) ratio” value came out at 251.
In the case of `CN(C)[C@@H]1CCN(c2nc(NCc3nc4ccccc4[nH]3)n3ncc(Br)c3n2)C1` [Example 178, N-[(1H-benzimidazol-2-yl)methyl]-8-bromo-2-[(3R)-3-(dimethylamino)pyrrolidin-1-yl]pyrazolo[1,5-a][1,3,5]triazin-4-amine], the IC50 in assay [1] was 501 nM. Moreover, in assay [2], the IC50 was 96.8 nM. Besides, in assay [3], the DC50 stood at 25.5 nM and the “(IC50 CDK12 high ATP) to (Degradation DC50 CDK12) ratio” value is on record as over 783.
